From the NIST ThermoML archive (doi:10.1016/j.jct.2016.12.006)
± gives the expanded uncertainty stated by the source.

Experiment: refractive index (Na D-line) (dimensionless)
Conditions: 303.15 K; 101.33 kPa; Liquid; Standard Abbe refractometry

Point of comparison: `CC(=O)OC(C)C` [1-methylethyl ethanoate], refractive index 1.3701 ± 0.004. Against it:
- CCOC(C)=O [ethyl acetate] — within error, 1.3675 ± 0.004
- OCC(F)(F)C(F)F [2,2,3,3-tetrafluoro-1-propanol] — lower, 1.3196 ± 0.004
